Measurements published in US10960005B2, “Treatment of relapsed and/or refractory solid tumors and non-hodgkin's lymphomas” (CELGENE QUANTICEL RESEARCH, INC., priority 2016, dated 2021).
Read-outs that look alike come from different tables or passages of the source.

Key:
[1] = system: LXFS 573 SCLC patient-derived xenograft; type: in vivo
NCI-H1417 SCLC xenograft = type: in vivo
[2] = Etoposide at 24 mg/kg/day SC days 1-3 + Vehicle
[3] = etoposide monotherapy 24 mg/kg SC
[4] = etoposide monotherapy 24 mg/kg SC QD×3

COc1cc([C@@H]2c3cc4c(cc3[C@@H](O[C@@H]3O[C@@H]5CO[C@@H](C)O[C@H]5[C@H](O)[C@H]3O)[C@H]3COC(=O)[C@H]23)OCO4)cc(OC)c1O [Etoposide, etoposide, reference compound]
% TGD [1, 2]: 50% | T-C [1, 2]: 21 days | median TTE [1, 2]: 63 days | SS (number of study survivors) ([1]; Etoposide at 24 mg/kg/day SC days 1-3 + Vehicle, Day 133, N=8): 0 (na) | % TGD [1, 3]: 50% | TGD [1, 3]: 21 days | % TGD (NCI-H1417 SCLC xenograft; 24 mg/kg Etoposide SC QD × 3): 92% | T-C (NCI-H1417 SCLC xenograft; 24 mg/kg Etoposide SC QD × 3): 24 days | median TTE (NCI-H1417 SCLC xenograft; 24 mg/kg Etoposide SC QD × 3): 50 days | % TGD (NCI-H1417 SCLC xenograft; [4]): 92% | TGD (NCI-H1417 SCLC xenograft; [4]): 24 days
